This assay deals with Trx-6×His-BCL6 (human BCL6 BTB domain covering amino-acid sequence 5-129) (Homo sapiens (Human), UniProt P41182). The assay is described as follows: HTRF in vitro assay (BCL6 / BCOR-AF633 peptide). The class given is binding. The following applies: further generated data; 1 nM Trx-6×His-BCL6, 300 nM BCOR-AF633 peptide, 0.5 nM anti-6×His-Terbium cryptate. On the procedure: The % inhibition at each concentration was calculated by normalising FRET ratio to the appropriate high (DMSO with all reagents) and low (DMSO without BCL6) controls.
With `Cn1c(=O)n(CCC(C)(C)O)c2cc(Nc3nc(-n4ccc(C(F)(F)F)n4)ncc3Cl)c(F)cc21` [Example 20r], the “HTRF pIC50” value stood at 6.53.

With `Cn1c(=O)n(CCC(C)(C)O)c2cc(Nc3nc(-n4cc(C(F)(F)F)cn4)ncc3Cl)ccc21` [Example 20s], the “HTRF pIC50” value is recorded as 6.26. Under `Cn1c(=O)n(CCC(C)(C)O)c2cc(Nc3nc(N4CCOCC4)ncc3Cl)ccc21` [Example 20t] stands 6.51; under `CSc1ncc(Cl)c(Nc2ccc3c(c2)n(CCC(C)(C)O)c(=O)n3C)n1` [Example 22a, 5-((5-chloro-2-(methylthio)pyrimidin-4-yl)amino)-3-(3-hydroxy-3-methylbutyl)-1-methyl-1,3-dihydro-2H-benzo[d]imidazol-2-one], 6.19.

In the case of `Cn1c(=O)n(CCC(C)(C)O)c2cc(Nc3cc(Br)ncc3Cl)ccc21` [Example 22b, 5-((2-bromo-5-chloropyridin-4-yl)amino)-3-(3-hydroxy-3-methylbutyl)-1-methyl-1,3-dihydro-2H-benzo[d]imidazol-2-one], the “HTRF pIC50” value is given as 5.65. Take `CCC1(Cn2c(=O)n(C)c3ccc(Nc4ccnc(Cl)c4C#N)cc32)CNC(=O)O1` (stereo not drawn) [Example 22c]: the “HTRF pIC50” value is 5.76. For the molecule `Cn1c(=O)n(CCC(C)(C)O)c2cc(Nc3ncnc(Cl)c3C#N)c(F)cc21` [Example 22d], the “HTRF pIC50” value is on record as 5.45. On to `CCC1(Cn2c(=O)n(C)c3ccc(Nc4ccnc(Cl)c4C#N)cc32)CN(C)C(=O)O1` (stereo not drawn) [Example 22e], for which the “HTRF pIC50” value came out at 5.88.

Consider `Cn1c(=O)n(CCC(C)(C)O)c2cc(Nc3ccnc(Cl)c3C#N)c(F)cc21` [Example 22f], for which the “HTRF pIC50” value was found to be 5.75.

As to `CCC(C)(O)CCn1c(=O)n(C)c2ccc(Nc3nc(Cl)ncc3Cl)cc21` (stereo not drawn) [Example 22g, 5-((2,5-dichloropyrimidin-4-yl)amino)-3-(3-hydroxy-3-methylpentyl)-1-methyl-1,3-dihydro-2H-benzo[d]imidazol-2-one], the “HTRF pIC50” value came out at 5.27. Turning to `Cn1c(=O)n(CCC(C)(C)O)c2cc(Nc3cc(Cl)nc4ccnn34)ccc21` [Example 22h], the “HTRF pIC50” value is 5.47. Under `Cn1c(=O)n(CCC(C)(C)O)c2cc(Nc3nc(Cl)nc(Cl)c3Cl)ccc21` [Example 22i] stands 5.54. The figure for `Cn1c(=O)n(CCC(C)(C)O)c2cc(Nc3ncnc(Cl)c3Cl)ccc21` [Example 22l] is 5.64. `CC[C@]1(O)CCC[C@H]1Cn1c(=O)n(C)c2ccc(Nc3ccnc(Cl)c3C#N)cc21` [Example 22m]: the “HTRF pIC50” value is recorded as 5.52.

With `Cn1c(=O)n(C[C@@H]2CCC[C@]2(C)O)c2cc(Nc3ccnc(Cl)c3C#N)ccc21` [Example 22n], the “HTRF pIC50” value worked out at 5.90. In the case of `Cn1ccc(-c2ncc(Cl)c(Nc3ccc4c(c3)n(CCC(C)(C)O)c(=O)n4C)n2)n1` [Example 23a, 5-((5-chloro-2-(1-methyl-1H-pyrazol-3-yl)pyrimidin-4-yl)amino)-3-(3-hydroxy-3-methylbutyl)-1-methyl-1,3-dihydro-2H-benzo[d]imidazol-2-one], the “HTRF pIC50” value was 6.35.

For the molecule `Cc1cc(-c2ncc(Cl)c(Nc3ccc4c(c3)n(CCC(C)(C)O)c(=O)n4C)n2)n(C)n1` [Example 23b], the “HTRF pIC50” value was found to be 6.05. The figure for `Cc1nc(C)c(-c2ncc(Cl)c(Nc3ccc4c(c3)n(CCC(C)(C)O)c(=O)n4C)n2)s1` [Example 23c] is 5.99; for `Cn1c(=O)n(CCC(C)(C)O)c2cc(Nc3nc(-c4cccs4)ncc3Cl)ccc21` [Example 23d] it is 5.62; for `Cn1ccnc1-c1ncc(Cl)c(Nc2ccc3c(c2)n(CCC(C)(C)O)c(=O)n3C)n1` [Example 24a, 5-((5-chloro-2-(1-methyl-1H-imidazol-2-yl)pyrimidin-4-yl)amino)-3-(3-hydroxy-3-methylbutyl)-1-methyl-1,3-dihydro-2H-benzo[d]imidazol-2-one:formic acid (1:1)] it is 6.33. In the case of `Cn1c(=O)n(CC2COCCN2CC(F)(F)F)c2cc(Nc3ccnc(Cl)c3C#N)ccc21` (stereo not drawn) [Example 25a, 2-chloro-4-((1-methyl-2-oxo-3-((4-(2,2,2-trifluoroethyl)morpholin-3-yl)methyl)-2,3-dihydro-1H-benzo[d]imidazol-5-yl)amino)nicotinonitrile], the “HTRF pIC50” value was found to be 5.58. Under `CCC(Cn1c(=O)n(C)c2ccc(Nc3ccnc(Cl)c3C#N)cc21)N(C)C` (stereo not drawn) [Example 25b, 2-chloro-4-((3-(2-(dimethylamino)butyl)-1-methyl-2-oxo-2,3-dihydro-1H-benzo[d]imidazol-5-yl)amino)nicotinonitrile: formic acid (1:1)] stands 5.34; under `CCN1CCC[C@H]1Cn1c(=O)n(C)c2ccc(Nc3ccnc(Cl)c3C#N)cc21` [Example 25c, (S)-2-chloro-4-((3-((1-ethylpyrrolidin-2-yl)methyl)-1-methyl-2-oxo-2,3-dihydro-1H-benzo[d]imidazol-5-yl)amino)nicotinonitrile], 5.34. The figure for `Cn1c(=O)n(CC2CCCCN2CC(F)(F)F)c2cc(Nc3ccnc(Cl)c3C#N)ccc21` (stereo not drawn) [Example 25e, 2-chloro-4-((1-methyl-2-oxo-3-((1-(2,2,2-trifluoroethyl)piperidin-2-yl)methyl)-2,3-dihydro-1H-benzo[d]imidazol-5-yl)amino)nicotinonitrile] is 5.37; for `Cn1c(=O)n(C[C@@H]2CCCN2CCF)c2cc(Nc3ccnc(Cl)c3C#N)ccc21` [Example 25f, (S)-2-chloro-4-((3-((1-(2-fluoroethyl)pyrrolidin-2-yl)methyl)-1-methyl-2-oxo-2,3-dihydro-1H-benzo[d]imidazol-5-yl)amino)nicotinonitrile: formic acid (1:1)] it is 5.73. As to `Cn1c(=O)n(C[C@@H]2CCCN2CCO)c2cc(Nc3ccnc(Cl)c3C#N)ccc21` [Example 25g, (S)-2-chloro-4-((3-((1-(2-hydroxyethyl)pyrrolidin-2-yl)methyl)-1-methyl-2-oxo-2,3-dihydro-1H-benzo[d]imidazol-5-yl)amino)nicotinonitrile: formic acid (1:1)], the “HTRF pIC50” value was 5.34.

As to `Cn1c(=O)n(C[C@@H]2CCCN2CC(F)F)c2cc(Nc3ccnc(Cl)c3C#N)ccc21` [Example 25i, (S)-2-chloro-4-((3-((1-(2,2-difluoroethyl)pyrrolidin-2-yl)methyl)-1-methyl-2-oxo-2,3-dihydro-1H-benzo[d]imidazol-5-yl)amino)nicotinonitrile], the “HTRF pIC50” value is 5.71. On to `CCNC(C)CCn1c(=O)n(C)c2ccc(Nc3ccnc(Cl)c3C#N)cc21.Cl` (stereo not drawn) [Example 26a, 2-chloro-4-((3-(3-(ethylamino)butyl)-1-methyl-2-oxo-2,3-dihydro-1H-benzo[d]imidazol-5-yl)amino)nicotinonitrile hydrochloride], for which the “HTRF pIC50” value was 5.41. The figure for `C#CCC(C)(O)CCn1c(=O)n(C)c2ccc(Nc3ccnc(Cl)c3C#N)cc21` (stereo not drawn) [Example 27a, 2-chloro-4-((3-(3-hydroxy-3-methylhex-5-yn-1-yl)-1-methyl-2-oxo-2,3-dihydro-1H-benzo[d]imidazol-5-yl)amino)nicotinonitrile] is 5.86; for `COCC(C)(O)CCn1c(=O)n(C)c2ccc(Nc3ccnc(Cl)c3C#N)cc21` (stereo not drawn) [Example 27b, 2-chloro-4-((3-(3-hydroxy-4-methoxy-3-methylbutyl)-1-methyl-2-oxo-2,3-dihydro-1H-benzo[d]imidazol-5-yl)amino)nicotinonitrile] it is 6.14.

The values above are taken from US12110286B2, “Benzimidazolone derived inhibitors of BCL6” (Cancer Research Technology Limited, priority 2017, dated 2024).
